Values quoted from earlier work in patent US5952383A, “Pharmaceutical composition for oral delivery” (Negma-Steba International Development N.V., priority 1996, dated 1999).
Counter-ions that a name gives are not always drawn.

Columns and labels:
[1] = oral

SMILES | solubility in water (water, EP-A-243,968) | solubility in carbonate solutions and in tetrahydrofuran (carbonate solutions and tetrahydrofuran) | solubility in water and in alcohols (water and alcohols) | solubility in water and ethanol (water and ethanol) | absorption by the digestive tract [1] | undesirable side effects ([1]; on account of incomplete absorption)
CC(=O)Oc1cccc2c1C(=O)c1c(OC(C)=O)cc(C(=O)O)cc1C2=O [potassium salt of diacerein] | water-soluble | – | – | – | – | –
CC(=O)Oc1cccc2c1C(=O)c1c(OC(C)=O)cc(C(=O)O)cc1C2=O [diacerein, diacetylrhein] | – | sparingly soluble | virtually insoluble | virtually insoluble | not totally absorbed | laxative effects
